Laboratory results taken from patent publication US20230149326A1, “PHARMACEUTICAL COMPOSITION FOR PREVENTING OR TREATING MUSCULAR WEAKNESS-RELATED DISEASES COMPRISING ALVERINE, 4-HYDROXY ALVERINE, DERIVATIVE THEREOF, OR PHARMACEUTICALLY ACCEPTABLE SALT THEREOF” (AVENTI INC., priority 2020, published 2023).
Where a name gives a salt, the structure may show the parent alone.

Key:
[1] = system: C57BL/6 male mice; assay: Running ability test (treadmill), normal mouse; assay type: in vivo; settings: oral
Experimental: In order to confirm the muscle strength enhancement effect of alverine citrate, after administering alverine citrate to a mouse, the mouse was tested for motor functions such as grip strength, running, balance coordination, and the like. After motor function tests, muscle weight was measured. In particular, each of 10 week-old C57BL/6 male mice was dosed orally with 200 μL of alverine citrate for 4 weeks, at a daily dose of 17 mg/kg/day (AC-L), 50 mg/kg/day (AC-M) or 150 mg/kg/day (AC-H). This group of mice was set as the experimental group (FIG. 3). The 10 week-old C57BL/6 male mice were purchased from Daehan BioLink. Running ability was measured using a treadmill designed specific for this experiment. First, aversive stimuli were provided by letting electric stimuli flow at the starting point. Before the measurement, the mice were acclimatized at 8 m/min for 10 minutes. The running time was recorded by allowing mice in each group to run in separate lanes until exhaustion. Exhaustion was defined such that when the mouse stays outside the lanes for 10 seconds or more without running, the mouse was determined to be exhausted and the time was recorded. It was not possible to repeat this experiment on the same mouse. The mouse was placed on the treadmill and the test was started at 8 rpm, and the speed was accelerated by 2 rpm every 10 minutes to a maximum speed of 20 rpm. […]

[2] = system: C57BL/6 male mice; assay: Balance coordination test (rota-rod), normal mouse; assay type: in vivo
Experimental: In order to confirm the muscle strength enhancement effect of alverine citrate, after administering alverine citrate to a mouse, the mouse was tested for motor functions such as grip strength, running, balance coordination, and the like. After motor function tests, muscle weight was measured. In particular, each of 10 week-old C57BL/6 male mice was dosed orally with 200 μL of alverine citrate for 4 weeks, at a daily dose of 17 mg/kg/day (AC-L), 50 mg/kg/day (AC-M) or 150 mg/kg/day (AC-H). This group of mice was set as the experimental group (FIG. 3). The 10 week-old C57BL/6 male mice were purchased from Daehan BioLink. Balance coordination was measured using a rota-rod test. The rota-rod test device consists of 4 test zones, each having a shaft diameter of 3 cm and a lane width of 9 cm, and 5 rotatable circular dividers having a diameter of 60 cm and a round rod. The test was started from a rotating speed of 10 rpm, and the speed was accelerated up to maximum 40 rpm over 5 minutes, and the duration for which the mouse remains inside the rota-rod device, clinging to the round rod without falling, was recorded. The mouse was allowed to rest for 15 minutes after each test and was subjected to three tests in total. An average value of three measurements was calculated.

[3] = system: C57BL/6 male mice; assay: Muscle weight measurement, normal mouse; assay type: in vivo
Experimental: In order to confirm the muscle strength enhancement effect of alverine citrate, after administering alverine citrate to a mouse, the mouse was tested for motor functions such as grip strength, running, balance coordination, and the like. After motor function tests, muscle weight was measured. In particular, each of 10 week-old C57BL/6 male mice was dosed orally with 200 μL of alverine citrate for 4 weeks, at a daily dose of 17 mg/kg/day (AC-L), 50 mg/kg/day (AC-M) or 150 mg/kg/day (AC-H). This group of mice was set as the experimental group (FIG. 3). The 10 week-old C57BL/6 male mice were purchased from Daehan BioLink. For muscle weight measurement, gastrocnemius (GA) tibialis anterior (TA) muscles in the hindlimb of the mice in each group were removed and weighed.

[4] = system: C2C12 cells; assay: Myotube atrophy induced by C26 cancer cell conditioned medium (cachexia model); assay type: cell-based, mouse; settings: 1 μM; differentiation media with 33% CM, 3 days
Experimental: In order to confirm a cachexia treatment effect of alverine citrate and 4-hydroxy alverine, an experiment mimicking a tumor-growth environment by treatment of a cancer cell conditioned medium (CM) was conducted as an ex vivo approach. First, cancer cell CM was prepared using a C26 cancer cell line. Here, as cancel cell growth media (GM), RPMI1640 media supplemented with 10% fetal bovine serum was used. The C26 cancer cell line was cultured using a 100 mm cell culture plate and the cancer cell GM. Here, the media were removed when cell confluency reached 90%. Then, after washing with phosphate buffer (1× buffer), the prepared differentiation media were treated following the same process as in Example 1. After 24 hours, a C26 cancer cell line CM was obtained and filtered using bottle top filters (Thermo, PES, 1 L) before use.
C2C12 cells were dispensed in a 6-well plate treated with the GM of Example 1.1 at a concentration of 5×10^5 cells per plate and after 24 hours, were replaced with DMEM media supplemented with 5% HS and induced for differentiation. […] Here, by treating the experimental groups with 1 μM alverine citrate (AC) and 4-hydroxy alverine (4HA), the effect of suppressing myotube atrophy was evaluated. […] Following the same method as in Example 1.2, by florescent staining using antibodies against MyHC, the expression amount of MyHC was measured.

[5] = oral, 4 weeks, 17, 50 or 150 mg/kg/day, compared with normal group

CCN(CCCc1ccccc1)CCCc1ccccc1 [alverine citrate]
running time ([1]; 4 weeks, 150 mg/kg/day): significant increase in the running time
running time ([1]; 4 weeks, 17, 50 or 150 mg/kg/day, compared with normal group): increased compared to the normal group mouse
duration clinging to the round rod, dependence on dose ([2]; as the administration dose increased (17, 50, 150 mg/kg/day)): also increased proportionally
duration clinging onto the round rod [2, 5]: increased compared to the normal group mouse
muscle weight of GA and TA, dependence on dose ([3]; as the administration dose increases (17, 50, 150 mg/kg/day)): also increased
muscle weight of GA and TA [3, 5]: increased compared to the normal group mouse
myotube atrophy [4]: myotube atrophy was suppressed
